Measurements reported in patent US6486167B1, “Heterocyclic cytotoxic agents” (Rutgers, The State University of New Jersey, priority 1997, dated 2002).
Read-outs that look alike come from different tables or passages of the source.

Experiments:
[1] = target: T1, human topoisomerase I (Homo sapiens, UniProt P11387); test: Topoisomerase I-mediated DNA cleavage assay (Test A); type: biochemical; settings: for Topo I-mediated DNA cleavage (REC, Relative Effective Concentration): concentration relative to camptothecin (CPT = 1) producing the same cleavage on plasmid DNA, human topoisomerase I; for topoisomerase I poisoning activity (in words): qualitative statement
T1 construct: made in house
T1 sequence (P11387 1-765): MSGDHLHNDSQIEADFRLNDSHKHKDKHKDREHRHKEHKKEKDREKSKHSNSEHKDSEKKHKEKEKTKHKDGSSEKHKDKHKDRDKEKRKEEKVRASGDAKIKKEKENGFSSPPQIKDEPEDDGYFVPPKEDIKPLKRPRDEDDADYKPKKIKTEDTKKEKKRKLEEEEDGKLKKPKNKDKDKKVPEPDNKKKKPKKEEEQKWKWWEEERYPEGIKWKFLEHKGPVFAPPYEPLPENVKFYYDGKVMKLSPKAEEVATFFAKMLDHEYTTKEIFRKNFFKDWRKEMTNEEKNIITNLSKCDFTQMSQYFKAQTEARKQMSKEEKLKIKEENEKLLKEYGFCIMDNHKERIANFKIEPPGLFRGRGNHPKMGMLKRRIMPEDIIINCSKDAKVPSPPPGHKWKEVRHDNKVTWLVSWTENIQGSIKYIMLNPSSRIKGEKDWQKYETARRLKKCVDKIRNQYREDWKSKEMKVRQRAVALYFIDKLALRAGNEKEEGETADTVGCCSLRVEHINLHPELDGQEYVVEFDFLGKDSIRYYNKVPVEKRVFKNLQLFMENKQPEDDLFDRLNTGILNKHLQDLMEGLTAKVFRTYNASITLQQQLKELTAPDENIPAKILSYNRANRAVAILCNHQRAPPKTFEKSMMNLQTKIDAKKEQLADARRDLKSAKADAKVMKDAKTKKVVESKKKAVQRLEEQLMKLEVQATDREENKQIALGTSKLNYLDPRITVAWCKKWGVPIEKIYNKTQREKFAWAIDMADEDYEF
Method: (§1) Topoisomerase I and Topoisomerase II Cleavage Assay
(§2) Representative compounds of the invention were evaluated in cleavage assays for the recombinant topoisomerases I and calf thymus topoisomerases I and II. These assays were preformed as described by B. Gatto et al. Cancer Res., 1996, 56, 2795-2800. Human topoisomerase I was isolated as a recombinant fusion protein using a T7 expression system. DNA topoisomerase II was purified from calf thymus gland as reported by Halligan, B. D.; Edwards, K. A.; Liu, L. F. “Purification and characterization of a type II DNA topoisomerase from bovine calf thymus,” J. Biol. Chem. 1985, 260, 2475. Plasmid YEpG was purified by the alkali lysis method followed by phenol deproteination and CsCl/ethidium isopycnic centrifugation as described by Maniatis, T.; Fritsch, E. F.; Sambrook, J. Molecular Cloning, a Laboratory Manual; Cold Spring Harbor Laboratory: Cold Spring Harbor, N.Y. 1982; pp 149-185. The end-labeling of the plasmid was accomplished by digestion with a restriction enzyme followed by end-filling with Klenow polymerase as previously described by Liu, L. F.; Rowe, T. C.; Yang, L.; Tewey, K. M.; Chen, G. L. “Cleavage of DNA by mammalian topoisomerase II,” J. Biol. Chem. 1983, 258, 15365.

[2] = tested on: human lymphoblast RPMI 8402; test: MTT-microtiter plate tetrazolinium cytotoxicity assay (Test B), RPMI 8402; type: cell-based; settings: read-out: Cytotoxicity IC50 RPMI
Method: (§3) The cytotoxicity was determined using the MTT-microtiter plate tetrazolinium cytotoxicity assay (MTA) (See Chen A. Y. et al. Cancer Res. 1993, 53, 1332; Mosmann, T. J., J. Immunol. Methods 1983, 65, 55; and Carmichael, J. et al. Cancer Res. 1987, 47, 936).

[3] = tested on: calf thymus topoisomerase II; test: Topoisomerase II-mediated DNA cleavage assay (Test A); type: biochemical; settings: concentration relative to VM-26 (= 1) producing the same cleavage on plasmid DNA
Method: as §1, §2

[4] = tested on: camptothecin-resistant variant cell line, CPT-K5; test: MTT-microtiter plate tetrazolinium cytotoxicity assay (Test B), CPT-K5; type: cell-based, human; settings: read-out: Cytotoxicity IC50 CPT-K5
Method: as §3

[5] = Homo sapiens, 96 h, CPT-K5 camptothecin-resistant cells, 4 days of continuous drug exposure

Row | Compound | Topo I-mediated DNA cleavage (REC, Relative Effective Concentration) [1] | melting point [°C] | IC50 ([2]; RPMI 8402 cells, 4 days of continuous drug exposure) [µM] | Topo II-mediated DNA cleavage (REC, Relative Effective Concentration) [3] | IC50 ([4]; CPT-K5 camptothecin-resistant cells, 4 days of continuous drug exposure) [µM] | topoisomerase I poisoning activity (in words) [1] | IC50 ([2]; Homo sapiens, RPMI 8402, 96 h) [µM] | IC50 ([4]; Homo sapiens, CPT-K5, 96 h) [µM] | IC50 ([2]; Homo sapiens, 96 h, RPMI 8402 cells, 4 days of continuous drug exposure) [µM] | IC50 [4, 5] [µM]
1 | COc1cc([C@@H]2c3cc4c(cc3[C@@H](O[C@@H]3O[C@@H]5CO[C@@H](c6cccs6)O[C@H]5[C@H](O)[C@H]3O)[C@H]3COC(=O)[C@H]23)OCO4)cc(OC)c1O [VM-26, teniposide, reference compound] | >1000 | – | 0.3 | 1 | 0.5 | – | – | – | – | –
2 | COc1cc2ccc3c4cc(OC)c(OC)cc4ncc3c2cc1OC [Compound 4, 2,3,8,9-Tetramethoxybenzo[i]phenanthridine] | >1000 | 267 to 268 | – | >1000 | – | significantly less topoisomerase I poisioning activity | 22.9 | 22.9 | – | –
3 | COc1cc2ccc3c4cc(OC)c(OC)cc4nc(C)c3c2cc1OC [Compound 5, 5-Methyl-2,3,8,9-tetramethoxybenzo[i]phenanthridine] | >1000 | 255 to 257 | – | >1000 | – | significantly less topoisomerase I poisioning activity | 27.5 | > 27.5 | – | –
4 | CC[C@@]1(O)C(=O)OCc2c1cc1n(c2=O)Cc2cc3ccccc3nc2-1 [CPT, camptothecin, reference compound] | 1 | – | – | >1000 | – | – | – | – | 0.004 | > 10
5 | COc1cc2ncc3c4cc5c(cc4ccc3c2cc1OC)OCO5 [Compound 6, 2,3-Methylenedioxy-8,9-dimethoxybenzo[i]phenanthridine] | 100 | > 250 | – | 10 | – | potent activity | 7.5 | 7 | – | –

Continued, in another order:

Row | Topo I-mediated DNA cleavage (REC, Relative Effective Concentration) [1] | melting point [°C] | Compound | IC50 ([2]; RPMI 8402 cells, 4 days of continuous drug exposure) [µM] | Topo II-mediated DNA cleavage (REC, Relative Effective Concentration) [3] | IC50 ([4]; CPT-K5 camptothecin-resistant cells, 4 days of continuous drug exposure) [µM] | topoisomerase I poisoning activity (in words) [1] | IC50 ([2]; Homo sapiens, RPMI 8402, 96 h) [µM] | IC50 ([4]; Homo sapiens, CPT-K5, 96 h) [µM] | IC50 ([2]; Homo sapiens, 96 h, RPMI 8402 cells, 4 days of continuous drug exposure) [µM] | IC50 [4, 5] [µM]
6 | 250 | – | COc1cc2ccc3c4cc(OCc5ccccc5)ccc4ncc3c2cc1OC [Compound 30, 2,3-Dimethoxy-9-benzyloxybenzo[i]phenanthridine] | – | >1000 | – | – | 7.5 | 7.5 | – | –
7 | 25 | 171 | COc1cc2ccc3c4cc5c(cc4ncc3c2cc1OC)OCO5 [Compound 28, 2,3-Dimethoxy-8,9-methylenedioxybenzo[i]phenanthridine] | – | >1000 | – | potent topoisomerase poisioning activity | 0.2 | 0.2 | – | –
8 | 200 | > 250 | COc1cc2nc(C)c3c4cc5c(cc4ccc3c2cc1OC)OCO5 [Compound 7, 8,9-Dimethoxy-5-methyl-2,3-methylenedioxybenzo[i]-phenanthridine] | – | 100 | – | potent activity | 10.1 | 14.4 | – | –
9 | 1 | – | COc1cc2c[n+](C)c3c4cc5c(cc4ccc3c2cc1OC)OCO5 [Nitidine, reference compound] | – | 1 | – | – | 0.65 | – | – | > 2.6
10 | 50 | – | COc1cc2ccc3c4cc(N)ccc4ncc3c2cc1OC [Compound 31, 2,3-Dimethoxy-9-aminobenzo[i]phenanthridine] | – | >1000 | – | – | 3 | 3 | – | –
11 | 100 | – | 2,3,8,9-Dimethylenedioxybenzo[i]phenanthridine [Compound 29] | – | >1000 | – | – | – | – | – | –
12 | – | 200 to 202 | COc1ccc2c(c1)ncc1c3cc(OC)c(OC)cc3ccc21 [Example 9, 2,3,8-Trimethoxybenzo[i]phenanthridine] | – | – | – | – | – | – | – | –
